{
  "source": "PubChem BioAssay AID2060502",
  "about": "(Molecular Pharmacology Branch, DTP, NCI, 2025)",
  "test_system": "885724-159-R-J1-PDC complex spheroid viability",
  "assay": "Anticancer human tumor 885724-159-R-J1-PDC patient-derived pancreatic adenocarcinoma cell line growth inhibition [GQUAD]",
  "conditions": "for viability, T/C: stronger effect = lower value",
  "description": "DNA G-quadruplex Stabilizer Agents in Combinations in Complex Spheroids\nA high-throughput screen of multi-cell type tumor spheroids was designed to identify active combinations of DNA G-quadruplex stabilizer agents and targeted small molecules. Complex spheroids include a stromal component modeled by human endothelial cells (HUVEC) and fibroblasts modeled by human mesenchymal stem cells (MSCs). The concentration ranges selected for each drug and investigational agent were based upon clinically achievable concentrations if the clinical Cmax of the agent was known.\nCompounds. The drugs and investigational agents: pidnarulex (CX-5461; NSC782164), APTO-253 (NSC789042), BRACO-19 (NSC847499), peposertib (NSC802822), ceralasertib (NSC780249), elimusertib (NSC800525), camonsertib (NSC841442), AZD-1390 (NSC803789), olaparib (NSC753686), talazoparib (NSC767125), ART-558 (NSC835418), sotorasib (NSC818433), MRTX-1133 (NSC836407), SN-38 (NSC673596), topotecan (NSC609699), etoposide (NSC141540), doxorubicin (NSC123127), gemcitabine (NSC613327), 5-fluorouracil (NSC19893), paclitaxel (NSC125973), vemurafenib (NSC761431), panobinostat (NSC761190), R-306465 (JNJ-16241199; NSC773264), adavosertib (NSC754352), TP-3654 (NSC805149), carboplatin (NSC241240), KSQ-4279 (NSC840948), and staurosporine (NSC755774) were obtained from the National Cancer Institute (NCI) Developmental Therapeutics Program Chemical Repository (34). The FDA-approved anticancer drug set is available from the NCI Developmental Therapeutics Program. […] The stock solutions were prepared in dimethyl sulfoxide (DMSO, Sigma-Aldrich, St. Louis, MO, cat. D2650) at 800-fold the tested concentration and stored at -70 degrees C prior to their use. All drugs and investigational agents were tested over a range starting from a high concentration at or near the clinical Cmax and decreasing in half-log increments. If the clinical Cmax for an agent had not been determined, the highest concentration tested was 10 microM.\n2.3 Cell Culture. All cells were maintained in an incubator at 37 degrees C and 5% CO2 with 95% humidity. The PDC lines were cultured according to standard operating procedures established by the NCI PDMR. All PDCs were thawed and cultured in Matrigel-coated flasks prepared with a working solution of 1X Ham's F-12 nutrient mix, without supplementation (Invitrogen, cat. 11765054), 100 U/mL penicillin-streptomycin (Invitrogen, cat. 15140122), and 2.5% Matrigel (Corning Inc., cat. 354248) for the first three passages. The 857933-349-R-J2-PDC line was cultured in 6C/Colon 1B media, which includes advanced DMEM/F-12 (Thermo Fisher Scientific, cat. 12634028), 10 mM HEPES (Thermo Fisher Scientific, cat. 15630080), 1X GlutaMAX supplement (Thermo Fisher Scientific, cat. 35050061), 0.1 mg/mL primocin (InvivoGen, cat. ant-pm-2), 10% defined fetal bovine serum, heat inactivated (HyClone Laboratories Inc., cat. SH30070.03HI), 50% L-WRN conditioned media (ATCC, cat. CRL-3276), 1.25 mM N-Acetyl-L-cysteine (Sigma-Aldrich, cat. A9165), 10 mM nicotinamide (Sigma-Aldrich, cat. N0636), 1X B-27 supplement (Thermo Fisher Scientific, cat. 17504044), 1X N-2 supplement (Thermo Fisher Scientific, cat. 17502048), 10 microM Y-27632 dihydrochloride (Tocris Bioscience, cat. 1254), and 50 ng/mL human EGF recombinant protein (Thermo Fisher Scientific, cat. PHG0311). The 485176-168-R4-J1-PDC line was cultured in Panc media, which includes all 6C/Colon 1B media components plus 100 ng/mL human FGF-10 (Thermo Fisher Scientific, cat. 100-26), 500 nM SB-431542 (Selleckchem, cat. S1067), and gastrin (Tocris, cat. 3006).\n[…]",
  "note": "“And” between values parts separate entries of the source, which are not always exact repeats. Identical values can stand only once.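 Further: spheroids exposed to agents for seven days before readout.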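 Wherever viability, T/C is given: percent of vehicle control viability where 100% = DMSO wells.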",
  "data": [
    {"smiles": "O=C(c1cc(Cc2n[nH]c(=O)c3ccccc23)ccc1F)N1CCN(C(=O)C2CC2)CC1", "note": "+ CN(C)c1ccc(Nc2c3ccc(NC(=O)CCN4CCCC4)cc3nc3cc(NC(=O)CCN4CCCC4)ccc23)cc1", "values": [
      {"measurement": "IC50", "setting": "curve of first compound, second compound 0.0316 µM", "value": "> 10", "unit": "µM"},
      {"measurement": "IC50", "setting": "curve of first compound, second compound 0.1 µM", "value": "> 10", "unit": "µM"},
      {"measurement": "IC50", "setting": "curve of first compound, second compound 0.316 µM", "value": "> 10", "unit": "µM"},
      {"measurement": "IC50", "setting": "curve of first compound, second compound 1 µM", "value": "> 10", "unit": "µM"},
      {"measurement": "IC50", "setting": "curve of first compound, second compound 3.16 µM", "value": "> 10", "unit": "µM"},
      {"measurement": "IC50", "setting": "curve of first compound, second compound 10 µM", "value": "> 10", "unit": "µM"},
      {"measurement": "viability, T/C", "setting": "second compound 0.0316 µM, first compound 0.0316 µM", "value": 117, "unit": "%"},
      {"measurement": "viability, T/C", "setting": "second compound 0.0316 µM, first compound 0.1 µM", "value": 93.1, "unit": "%"},
      {"measurement": "viability, T/C", "setting": "second compound 0.0316 µM, first compound 0.316 µM", "value": 89.7, "unit": "%"},
      {"measurement": "viability, T/C", "setting": "second compound 0.0316 µM, first compound 1 µM", "value": 92.4, "unit": "%"},
      {"measurement": "viability, T/C", "setting": "second compound 0.0316 µM, first compound 3.16 µM", "value": 95.3, "unit": "%"},
      {"measurement": "viability, T/C", "setting": "second compound 0.0316 µM, first compound 10 µM", "value": 88.8, "unit": "%"},
      {"measurement": "viability, T/C", "setting": "second compound 0.1 µM, first compound 0.0316 µM", "value": 101, "unit": "%"},
      {"measurement": "viability, T/C", "setting": "second compound 0.1 µM, first compound 0.1 µM", "value": 100, "unit": "%"},
      {"measurement": "viability, T/C", "setting": "second compound 0.1 µM, first compound 0.316 µM", "value": 103, "unit": "%"},
      {"measurement": "viability, T/C", "setting": "second compound 0.1 µM, first compound 1 µM", "value": 106, "unit": "%"},
      {"measurement": "viability, T/C", "setting": "second compound 0.1 µM, first compound 3.16 µM", "value": 85.3, "unit": "%"},
      {"measurement": "viability, T/C", "setting": "second compound 0.1 µM, first compound 10 µM", "value": 72.5, "unit": "%"},
      {"measurement": "viability, T/C", "setting": "second compound 0.316 µM, first compound 0.0316 µM", "value": 90.6, "unit": "%"},
      {"measurement": "viability, T/C", "setting": "second compound 0.316 µM, first compound 0.1 µM", "value": 88.1, "unit": "%"},
      {"measurement": "viability, T/C", "setting": "second compound 0.316 µM, first compound 0.316 µM", "value": 105, "unit": "%"},
      {"measurement": "viability, T/C", "setting": "second compound 0.316 µM, first compound 1 µM", "value": 93.5, "unit": "%"},
      {"measurement": "viability, T/C", "setting": "second compound 0.316 µM, first compound 3.16 µM", "value": 97.1, "unit": "%"},
      {"measurement": "viability, T/C", "setting": "second compound 0.316 µM, first compound 10 µM", "value": 80, "unit": "%"},
      {"measurement": "viability, T/C", "setting": "second compound 1 µM, first compound 0.0316 µM", "value": 83.3, "unit": "%"},
      {"measurement": "viability, T/C", "setting": "second compound 1 µM, first compound 0.1 µM", "value": 80, "unit": "%"},
      {"measurement": "viability, T/C", "setting": "second compound 1 µM, first compound 0.316 µM", "value": 87, "unit": "%"},
      {"measurement": "viability, T/C", "setting": "second compound 1 µM, first compound 1 µM", "value": 73.3, "unit": "%"},
      {"measurement": "viability, T/C", "setting": "second compound 1 µM, first compound 3.16 µM", "value": 76.7, "unit": "%"},
      {"measurement": "viability, T/C", "setting": "second compound 1 µM, first compound 10 µM", "value": 63.8, "unit": "%"},
      {"measurement": "viability, T/C", "setting": "second compound 3.16 µM, first compound 0.0316 µM", "value": 79.4, "unit": "%"},
      {"measurement": "viability, T/C", "setting": "second compound 3.16 µM, first compound 0.1 µM", "value": 65.2, "unit": "%"},
      {"measurement": "viability, T/C", "setting": "second compound 3.16 µM, first compound 0.316 µM", "value": 84.4, "unit": "%"},
      {"measurement": "viability, T/C", "setting": "second compound 3.16 µM, first compound 1 µM", "value": 73.2, "unit": "%"},
      {"measurement": "viability, T/C", "setting": "second compound 3.16 µM, first compound 3.16 µM", "value": 70.5, "unit": "%"},
      {"measurement": "viability, T/C", "setting": "second compound 3.16 µM, first compound 10 µM", "value": 69.5, "unit": "%"},
      {"measurement": "viability, T/C", "setting": "second compound 10 µM, first compound 0.0316 µM", "value": 72.1, "unit": "%"},
      {"measurement": "viability, T/C", "setting": "second compound 10 µM, first compound 0.1 µM", "value": 74.2, "unit": "%"},
      {"measurement": "viability, T/C", "setting": "second compound 10 µM, first compound 0.316 µM", "value": 69.9, "unit": "%"},
      {"measurement": "viability, T/C", "setting": "second compound 10 µM, first compound 1 µM", "value": 75.9, "unit": "%"},
      {"measurement": "viability, T/C", "setting": "second compound 10 µM, first compound 3.16 µM", "value": 90.1, "unit": "%"},
      {"measurement": "viability, T/C", "setting": "second compound 10 µM, first compound 10 µM", "value": 69.6, "unit": "%"}
    ]},
    {"smiles": "COc1ccc([C@@H](O)c2cc(-c3ncnc4cc(N5CCOCC5)ccc34)c(F)cc2Cl)nn1", "values": [
      {"measurement": "viability, T/C", "setting": "compound 0.0316 µM", "value": "97.9% and 93.6% and 102%"},
      {"measurement": "viability, T/C", "setting": "compound 0.1 µM", "value": "99.9% and 83.8% and 90.8%"},
      {"measurement": "viability, T/C", "setting": "compound 0.316 µM", "value": "85.5% and 98.2% and 81.1%"},
      {"measurement": "viability, T/C", "setting": "compound 1 µM", "value": "87.8% and 74.6% and 83.2%"},
      {"measurement": "viability, T/C", "setting": "compound 3.16 µM", "value": "64.8% and 59.1% and 64.2%"},
      {"measurement": "viability, T/C", "setting": "compound 10 µM", "value": "39.9% and 41.8% and 37.1%"},
      {"measurement": "IC50", "setting": "curve of compound", "value": "6.4 µM and 5.56 µM and 5.78 µM"}
    ]},
    {"smiles": "CC(C)(O)C1CCC(Nc2ccc3ncc(-c4cccc(C(F)(F)F)c4)n3n2)CC1", "note": "(stereo not drawn)", "values": [
      {"measurement": "viability, T/C", "setting": "compound 0.0316 µM", "value": "110% and 93.1% and 96.4%"},
      {"measurement": "viability, T/C", "setting": "compound 0.1 µM", "value": "95% and 90.9% and 102%"},
      {"measurement": "viability, T/C", "setting": "compound 0.316 µM", "value": "85.7% and 91.3% and 93.8%"},
      {"measurement": "viability, T/C", "setting": "compound 1 µM", "value": "75.3% and 74.9% and 73.6%"},
      {"measurement": "viability, T/C", "setting": "compound 3.16 µM", "value": "45.3% and 41.7% and 38.7%"},
      {"measurement": "viability, T/C", "setting": "compound 10 µM", "value": "46% and 47.1% and 39.8%"},
      {"measurement": "IC50", "setting": "curve of compound", "value": "4.44 µM and 2.56 µM and 2.25 µM"}
    ]},
    {"smiles": "CC1COCCN1c1cc(-c2ccnn2C)c2ccnc(-c3ccn[nH]3)c2n1", "note": "(stereo not drawn)", "values": [
      {"measurement": "viability, T/C", "setting": "compound 0.0316 µM", "value": "104% and 98% and 79.1%"},
      {"measurement": "viability, T/C", "setting": "compound 0.1 µM", "value": "93% and 80.3% and 83.4%"},
      {"measurement": "viability, T/C", "setting": "compound 0.316 µM", "value": "83.2% and 68.7% and 75%"},
      {"measurement": "viability, T/C", "setting": "compound 1 µM", "value": "69.1% and 67.7% and 69.3%"},
      {"measurement": "viability, T/C", "setting": "compound 3.16 µM", "value": "58.6% and 51.1% and 45.9%"},
      {"measurement": "viability, T/C", "setting": "compound 10 µM", "value": "45.6% and 52.2% and 42.1%"},
      {"measurement": "IC50", "setting": "curve of compound", "value": "6.76 µM and > 10 µM and 2.65 µM"}
    ]}
  ]
}
